We go through ten compounds from patent publication US20260217708A1, “FUSED BENZAZEPINE DERIVATIVES FOR USE IN THE TREATMENT OF CANCER AND EPILEPSY” (UCB BIOPHARMA SRL, priority 2023, published 2026).

For assay [1], the target named is T1, system Xc^− (Homo sapiens, UniProt Q9UPY5).
T1 sequence (Q9UPY5 1-501): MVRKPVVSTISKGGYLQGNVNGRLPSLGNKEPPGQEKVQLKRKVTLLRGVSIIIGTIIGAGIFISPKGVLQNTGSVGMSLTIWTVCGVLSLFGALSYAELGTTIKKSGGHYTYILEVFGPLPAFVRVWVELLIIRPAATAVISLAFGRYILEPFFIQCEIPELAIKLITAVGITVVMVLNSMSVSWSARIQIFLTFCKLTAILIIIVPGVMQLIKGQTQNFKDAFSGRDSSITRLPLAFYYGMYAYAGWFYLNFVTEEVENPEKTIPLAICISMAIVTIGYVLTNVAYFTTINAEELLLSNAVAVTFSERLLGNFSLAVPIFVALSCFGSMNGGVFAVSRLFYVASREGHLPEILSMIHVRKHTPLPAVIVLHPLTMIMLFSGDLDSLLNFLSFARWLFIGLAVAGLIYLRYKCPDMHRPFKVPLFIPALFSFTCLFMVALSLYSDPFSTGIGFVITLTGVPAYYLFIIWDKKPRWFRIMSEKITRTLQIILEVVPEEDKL
T1 sequence (P08195 1-529 partner): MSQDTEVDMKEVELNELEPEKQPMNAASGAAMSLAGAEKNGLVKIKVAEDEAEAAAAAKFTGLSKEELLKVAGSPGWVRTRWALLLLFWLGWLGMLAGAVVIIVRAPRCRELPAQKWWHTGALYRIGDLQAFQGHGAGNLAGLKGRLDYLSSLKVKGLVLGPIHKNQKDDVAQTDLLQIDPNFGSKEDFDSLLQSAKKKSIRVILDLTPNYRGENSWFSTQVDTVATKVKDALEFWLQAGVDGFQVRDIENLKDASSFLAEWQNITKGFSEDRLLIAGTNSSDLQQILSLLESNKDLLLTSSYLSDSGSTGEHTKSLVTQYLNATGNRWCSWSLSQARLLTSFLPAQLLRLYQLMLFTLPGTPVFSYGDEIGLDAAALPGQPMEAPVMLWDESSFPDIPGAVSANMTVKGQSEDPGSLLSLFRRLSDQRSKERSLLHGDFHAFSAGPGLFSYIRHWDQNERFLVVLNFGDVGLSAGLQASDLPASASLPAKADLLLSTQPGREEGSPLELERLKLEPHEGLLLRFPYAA
Briefly: Cystine-induced glutamate release assay. The assay is classed as cell-based. Also on record: endogenous in cells; host or cells: H4 cells. The conditions noted are these: H4 cells, sodium-free HEPES buffer, 50 μM L-Cystine, 2 hours, Amplex Red glutamate readout; read-out: pIC50 Cystine-induced glutamate release assay (converted). Summed up: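 H4 cells in sodium-free HEPES buffer (pH 7.4), 2 days after plating; glutamate release induced with 50 μM L-cystine plus compound (1% DMSO), 2 h at 37 °C. Supernatant glutamate measured by Amplex Red fluorescence; IC50/pIC50 derived between 1% DMSO and 50 μM erastin controls.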

Assay [2] has as its target T1, system Xc^−. In words: [^14C]L-Cystine uptake assay. The class given is cell-based. As to conditions: H4 cells, sodium-free HEPES buffer, 0.5 μM L-[14C]Cystine and 4.5 μM L-Cystine, 1 hour at 37° C.; read-out: pIC50 [^14C] L-Cystine uptake assay (converted). Further details: endogenous in cells; host or cells: H4 cells. The gist of the method:
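H4 cells at 5×10^4 cells/well in sodium-free HEPES buffer were preincubated 15 min with compounds (1% DMSO). Uptake of 0.5 μM [14C]L-cystine plus 4.5 μM unlabelled L-cystine ran 1 hour at 37° C on scintillating plates. IC50 was set between 1% DMSO and 50 μM Erastin controls and expressed as pIC50.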

Each structure is given as a SMILES string.

`Cc1cncc2c1-c1ccccc1CC(=O)N2CC(=O)Nc1ccc(C(F)(F)F)cc1` [#45, 2-(1-methyl-6-oxo-7H-pyrido[3,4-d][3]benzazepin-5-yl)-N-[4-(trifluoromethyl)phenyl]acetamide]: the IC50 was 39.8 to 100 nM on system Xc^− [1] and 100 to 501 nM at system Xc^− [2].

Consider `C[C@H]1C(=O)N(CC(=O)Nc2ccc(C(F)F)cc2)c2cc(N3CC4C(C3)C4(F)F)nc(F)c2-c2cccnc21` (single isomer, unassigned) [#289, 2-[5-(6,6-difluoro-3-azabicyclo[3.1.0]hexan-3-yl)-3-fluoro-10-methyl-9-oxo-4,8,12-triazatricyclo[9.4.0.0^2,7]pentadeca-1(11),2(7),3,5,12,14-hexaen-8-yl]-N-[4-(difluoromethyl)phenyl]acetamide], for which the IC50 was 15.8 to 39.8 nM at system Xc^− [1] and under 15.8 nM at system Xc^− [2].

In the case of `Cc1cc2c(c(Cl)n1)-c1ccnnc1C(C)C(=O)N2CC(=O)Nc1ccc(C(F)(F)F)cc1` (centres unmarked) [#173, 2-(3-chloro-5,10-dimethyl-9-oxo-4,8,12,13-tetrazatricyclo[9.4.0.0^2,7]pentadeca-1(11),2(7),3,5,12,14-hexaen-8-yl)-N-[4-(trifluoromethyl)phenyl]acetamide], the results for the IC50 on system Xc^− [1] and at system Xc^− [2] were 15.8 to 39.8 nM and under 15.8 nM, respectively.

Take `COc1cc2c(c(F)n1)-c1cccnc1C(C)C(=O)N2CC(=O)Nc1ccc(C(F)(F)F)cc1` (centres unmarked) [#182, 2-(3-fluoro-5-methoxy-10-methyl-9-oxo-4,8,12-triazatricyclo[9.4.0.0^2,7]pentadeca-1(11),2(7),3,5,12,14-hexaen-8-yl)-N-[4-(trifluoromethyl)phenyl]acetamide]: the IC50 at system Xc^− [1] and at system Xc^− [2] was 15.8 to 39.8 nM each time.

Take `COc1cc2c(c(F)n1)-c1cccnc1C(C)C(=O)N2CC(=O)Nc1ccc(F)c(Cl)c1` (single isomer, unassigned) [#216, Enantiomer (10S) or (10R) of N-(3-chloro-4-fluoro-phenyl)-2-(3-fluoro-5-methoxy-10-methyl-9-oxo-4,8,12-triazatricyclo[9.4.0.0^2,7]pentadeca-1(11),2(7),3,5,12,14-hexaen-8-yl)acetamide]: the IC50 on system Xc^− [1] was 39.8 to 100 nM; at system Xc^− [2] it was 15.8 to 39.8 nM.

In the case of `COCCOc1nc(C)cc2c1-c1cccnc1C(C)C(=O)N2CC(=O)Nc1ccc(C(F)(F)F)cc1` (single isomer, unassigned) [#162, 2-[3-(2-methoxyethoxy)-5,10-dimethyl-9-oxo-4,8,12-triazatricyclo[9.4.0.0^2,7]pentadeca-1(11),2(7),3,5,12,14-hexaen-8-yl]-N-[4-(trifluoromethyl)phenyl]acetamide], the IC50 on system Xc^− [1] and at system Xc^− [2] was 15.8 to 39.8 nM each time.

For `CO[C@H]1C(=O)N(CC(=O)Nc2ccc(C(F)(F)F)cc2)c2cc(C)nc(Cl)c2-c2ccccc21` (single isomer, unassigned) [#199, Entnaiomer (7R) or (7S) of 2-[1-chloro-7-methoxy-3-methyl-6-oxo-7H-pyrido[4,3-d][3]benzazepin-5-yl]-N-[4-(trifluoromethyl)phenyl]acetamide], the IC50 on system Xc^− [1] is 15.8 to 39.8 nM; at system Xc^− [2] it was under 15.8 nM.

For `Cc1cc2c(c(F)n1)-c1cccnc1[C@@H](C)C(=O)N2CC(=O)Nc1ccc(C(F)(F)F)cc1` (single isomer, unassigned) [#192], the IC50 at system Xc^− [1] and at system Xc^− [2] was under 15.8 nM throughout.

As for `COc1cc2c(c(OC)n1)-c1cccnc1C(C)C(=O)N2CC(=O)Nc1ccc(C(F)F)cc1` (single isomer, unassigned) [#335, N-[4-(difluoromethyl)phenyl]-2-[3,5-dimethoxy-10-methyl-9-oxo-4,8,12-triazatricyclo[9.4.0.0^2,7]pentadeca-1(15),2(7),3,5,11,13-hexaen-8-yl]acetamide], the IC50 at system Xc^− [1] and on system Xc^− [2] was under 15.8 nM in each case.

Consider `COc1ncc(F)c2c1-c1ccccc1C(C)C(=O)N2CC(=O)Nc1ccc(Cl)c(F)c1` (centres unmarked) [#400, N-(4-chloro-3-fluoro-phenyl)-2-(4-fluoro-1-methoxy-7-methyl-6-oxo-7H-pyrido[4,3-d][3]benzazepin-5-yl)acetamide], for which the figures for the IC50 at system Xc^− [1] and at system Xc^− [2] were 39.8 to 100 nM and 100 to 501 nM, respectively.
